Source: ChEMBL document CHEMBL5113409, “Design and synthesis of proteolysis targeting chimeras (PROTACs) as an EGFR degrader based on CO-1686” (Eur J Med Chem, 2022)
Calls of active or inactive are those of the source. No cut-off for these calls is given here.

What was measured:
[1] = system: A549; experiment: Anti-proliferative activity against human A549 cells assessed as reduction in cell proliferation incubated for 72 hrs by MTT assay; format: functional, cell-based; details: A549, 72 h
[2] = system: PC-9; experiment: Anti-proliferative activity against human PC-9 cells assessed as reduction in cell proliferation incubated for 72 hrs by MTT assay; format: functional, cell-based; details: PC-9, 72 h
[3] = system: NCI-H1975; experiment: Anti-proliferative activity against human NCI-H1975 cells assessed as reduction in cell proliferation incubated for 72 hrs by MTT assay; format: functional, cell-based; details: NCI-H1975, 72 h
[4] = species: Homo sapiens; experiment: Selectivity index, ratio of IC50 for wild type EGFR (unknown origin) to IC50 for Protein cereblon/Epidermal growth factor receptor L858R/T790M mutant
[5] = system: Protein cereblon/Epidermal growth factor receptor (Homo sapiens), P00533+Q96SW2 [L858R,T790M]; experiment: Protac activity at CRBN/EGFR L858R/T790M mutant in human NCI-H1975 cells assessed as L858R/T790M mutant degradation at 3 uM incubated for 48 hrs by Western blot analysis; format: cell-based
[6] = target: Epidermal growth factor receptor (Homo sapiens, UniProt P00533, L858R/T790M); experiment: Inhibition of EGFR L858R/T790M mutant (unknown origin) incubated for 35 mins by HTRF KinEASE-TK assay
[7] = target: Epidermal growth factor receptor (Homo sapiens, UniProt P00533); experiment: Inhibition of wild type EGFR (unknown origin) incubated for 10 mins by HTRF KinEASE-TK assay

Structure (SMILES)	IC50 [1] [µM]	IC50 [2] [µM]	IC50 [3] [µM]	Ratio IC50 [4]	Activity [5]	IC50 [6] [nM]	IC50 [7] [nM]
C=CC(=O)Nc1cccc(Nc2nc(Nc3ccc(N4CCN(C(=O)CCCCCC(=O)Nc5cccc6c5C(=O)N(C5CCC(=O)NC5=O)C6=O)CC4)cc3OC)ncc2C(F)(F)F)c1 (configuration not stated)	29.8	0.9	0.59	32	Active	20.3	648
C=CC(=O)Nc1cccc(Nc2nc(Nc3ccc(N4CCN(C(=O)CCCC(=O)Nc5cccc6c5C(=O)N(C5CCC(=O)NC5=O)C6=O)CC4)cc3OC)ncc2C(F)(F)F)c1 (configuration not stated)	> 100	1.35	0.95	98	Active	33	3230
C=CC(=O)Nc1cccc(Nc2nc(Nc3ccc(N4CCN(CCOCCNc5cccc6c5C(=O)N(C5CCC(=O)NC5=O)C6=O)CC4)cc3OC)ncc2C(F)(F)F)c1 (configuration not stated)	36.9	0.5	0.22	15	Active	24.1	364
C=CC(=O)Nc1cccc(Nc2nc(Nc3ccc(N4CCN(C(=O)CCCCCCCCCC(=O)Nc5cccc6c5C(=O)N(C5CCC(=O)NC5=O)C6=O)CC4)cc3OC)ncc2C(F)(F)F)c1 (configuration not stated)	> 100	3.69	2.81				
C=CC(=O)Nc1cccc(Nc2nc(Nc3ccc(N4CCN(C(=O)CCCCCCCCCCC(=O)Nc5cccc6c5C(=O)N(C5CCC(=O)NC5=O)C6=O)CC4)cc3OC)ncc2C(F)(F)F)c1 (configuration not stated)	> 100	8.77	8.55				
C=CC(=O)Nc1cccc(Nc2nc(Nc3ccc(N4CCN(CC(=O)NCCOc5cccc6c5C(=O)N(C5CCC(=O)NC5=O)C6=O)CC4)cc3OC)ncc2C(F)(F)F)c1 (configuration not stated)	> 100	7.34	9.31				
C=CC(=O)Nc1cccc(Nc2nc(Nc3ccc(N4CCN(C(=O)CCCCCCCCCCCC(=O)Nc5cccc6c5C(=O)N(C5CCC(=O)NC5=O)C6=O)CC4)cc3OC)ncc2C(F)(F)F)c1 (configuration not stated)	> 100	18.1	17.1				
C=CC(=O)Nc1cccc(Nc2nc(Nc3ccc(N4CCN(CC(=O)NCCCCCNc5cccc6c5C(=O)N(C5CCC(=O)NC5=O)C6=O)CC4)cc3OC)ncc2C(F)(F)F)c1 (configuration not stated)	> 100	3.43	0.52				
C=CC(=O)Nc1cccc(Nc2nc(Nc3ccc(N4CCN(CC(=O)NCCNc5cccc6c5C(=O)N(C5CCC(=O)N(C)C5=O)C6=O)CC4)cc3OC)ncc2C(F)(F)F)c1 (configuration not stated)	> 100	1.89	4.68	11		134	1400
C=CC(=O)Nc1cccc(Nc2nc(Nc3ccc(N4CCN(C(=O)CCCCC(=O)Nc5cccc6c5C(=O)N(C5CCC(=O)NC5=O)C6=O)CC4)cc3OC)ncc2C(F)(F)F)c1 (configuration not stated)	> 100	4.62	1.56				
C=CC(=O)Nc1cccc(Nc2nc(Nc3ccc(N4CCN(CC(=O)NCCCCCCNC(=O)CNc5cccc6c5C(=O)N(C5CCC(=O)NC5=O)C6=O)CC4)cc3OC)ncc2C(F)(F)F)c1 (configuration not stated)	> 100	6.61	17				
C=CC(=O)Nc1cccc(Nc2nc(Nc3ccc(N4CCN(CC(=O)NCCCNc5cccc6c5C(=O)N(C5CCC(=O)NC5=O)C6=O)CC4)cc3OC)ncc2C(F)(F)F)c1 (configuration not stated)	> 100	2.58	5.76				
C=CC(=O)Nc1cccc(Nc2nc(Nc3ccc(N4CCN(CC(=O)NCCCCCCNc5cccc6c5C(=O)N(C5CCC(=O)NC5=O)C6=O)CC4)cc3OC)ncc2C(F)(F)F)c1 (configuration not stated)	> 100	3.28	4.14				
C=CC(=O)Nc1cccc(Nc2nc(Nc3ccc(N4CCN(C(=O)CCCCNc5cccc6c5C(=O)N(C5CCC(=O)NC5=O)C6=O)CC4)cc3OC)ncc2C(F)(F)F)c1 (configuration not stated)	> 100	6.74	1.09	5	Active	121	614

Continued, in another order:

IC50 [1] [µM]	IC50 [2] [µM]	IC50 [3] [µM]	Structure (SMILES)	Ratio IC50 [4]	Activity [5]	IC50 [6] [nM]	IC50 [7] [nM]
> 100	13.4	8.89	C=CC(=O)Nc1cccc(Nc2nc(Nc3ccc(N4CCN(CC(=O)NCCNC(=O)CNc5cccc6c5C(=O)N(C5CCC(=O)NC5=O)C6=O)CC4)cc3OC)ncc2C(F)(F)F)c1 (configuration not stated)				
> 100	14.4	12.8	C=CC(=O)Nc1cccc(Nc2nc(Nc3ccc(N4CCN(CC(=O)NCCCCCNC(=O)CNc5cccc6c5C(=O)N(C5CCC(=O)NC5=O)C6=O)CC4)cc3OC)ncc2C(F)(F)F)c1 (configuration not stated)				
7.57	0.27	0.13	C=CC(=O)Nc1cccc(Nc2nc(Nc3ccc(N4CCN(C(C)=O)CC4)cc3OC)ncc2C(F)(F)F)c1 [ROCILETINIB]				
> 100	13.2	11.7	C=CC(=O)Nc1cccc(Nc2nc(Nc3ccc(N4CCN(CC(=O)NCCCCNC(=O)CNc5cccc6c5C(=O)N(C5CCC(=O)NC5=O)C6=O)CC4)cc3OC)ncc2C(F)(F)F)c1 (configuration not stated)				
> 100	5.31	1.53	C=CC(=O)Nc1cccc(Nc2nc(Nc3ccc(N4CCN(C(=O)CCCCCCCC(=O)Nc5cccc6c5C(=O)N(C5CCC(=O)NC5=O)C6=O)CC4)cc3OC)ncc2C(F)(F)F)c1 (configuration not stated)				
> 100	7.67	7.35	C=CC(=O)Nc1cccc(Nc2nc(Nc3ccc(N4CCN(CC(=O)NCCCNC(=O)CNc5cccc6c5C(=O)N(C5CCC(=O)NC5=O)C6=O)CC4)cc3OC)ncc2C(F)(F)F)c1 (configuration not stated)				
> 100	46.5	62	C=CC(=O)Nc1cccc(Nc2nc(Nc3ccc(N4CCN(C(=O)CCCCCCCCCCCCC(=O)Nc5cccc6c5C(=O)N(C5CCC(=O)NC5=O)C6=O)CC4)cc3OC)ncc2C(F)(F)F)c1 (configuration not stated)				
> 100	3.51	4.72	C=CC(=O)Nc1cccc(Nc2nc(Nc3ccc(N4CCN(CC(=O)NCCNc5ccc6c(c5)C(=O)N(C5CCC(=O)NC5=O)C6=O)CC4)cc3OC)ncc2C(F)(F)F)c1 (configuration not stated)				
> 100	2.55	5.02	C=CC(=O)Nc1cccc(Nc2nc(Nc3ccc(N4CCN(C(=O)CCCCCCC(=O)Nc5cccc6c5C(=O)N(C5CCC(=O)NC5=O)C6=O)CC4)cc3OC)ncc2C(F)(F)F)c1 (configuration not stated)				
> 100	26.7	17	C=CC(=O)Nc1cccc(Nc2nc(Nc3ccc(N4CCN(C(=O)CCCCCCCCC(=O)Nc5cccc6c5C(=O)N(C5CCC(=O)NC5=O)C6=O)CC4)cc3OC)ncc2C(F)(F)F)c1 (configuration not stated)				
33.3	4.86	8.36	C=CC(=O)Nc1cccc(Nc2nc(Nc3ccc(N4CCN(CC(=O)NCCNc5cccc6c5CN(C5CCC(=O)NC5=O)C6=O)CC4)cc3OC)ncc2C(F)(F)F)c1 (configuration not stated)	2.5		965	2400
